Data from US11691962B2 (eXIthera Pharmaceuticals, Inc., priority 2018, dated 2023).

Legend:
Format in all cases: biochemical
Trypsin = experiment: Dose response assay for protease inhibitors: trypsin; settings: selectivity, trypsin over Factor XIa
Description: (§1) • Assay buffer: 20 mM Hepes, pH 7.4; 150 mM NaCl; 0.02% Tween 20 • Compounds: 10 mM stocks in DMSO • Substrate: 20 mM Glp-Pro-Arg-AMC, 25 mg/2.3 mL H2O (store at +4° C.) [Factor XIa, thrombin, and trypsin] • 20 mM Pro-Phe-Arg-AMC (Bachem I-1295), 25 mg/2.2 mL H2O • or Boc-Leu-Gly-Arg-AMC (Bachem I-1105), 25 mg/2.07 mL H2O • (store at +4° C.) [Factor Xa] • Enzyme: Factor XIa; 0.25 μM in 50% glycerol (20 μg/mL) • Trypsin; 0.2 μM in 50% glycerol (4.8 μg/mL) • Thrombin; 0.2 μM in 50% glycerol (7.34 μg/mL) • Factor Xa; 0.2 μM in 50% glycerol (9.2 μg/mL) • These stocks are aliquoted (˜100 μL/aliquot) and stored at −20° C. Methods: • 1. Dilute the substrate to 100 μM in assay buffer (30 μL/6 mL). The enzyme is diluted to 0.5 nM just prior to use (12 μL/6 mL for Factor XIa; 15 μL/6 mL for all of the rest.) • 2. Pipette 50 μL of substrate into each well of the 96 well (12×8) microtiter plate. (Column 1 is used as the 100% activity control and receives no compound, and Column 12 is the blank and receives no enzyme.) Add an additional 46 μL to column 2. • 3. Pipette 4 μL of each compound into the appropriate well in column 2 of the plate (unknowns assayed in triplicate, standard assayed in duplicate). The final compound concentration will be […] of the stock. • 4. Serially two-fold dilute the compound by mixing the sample in column 2, removing 50 μL to the next well (column 3), mix and remove to column 4, etc. until column 11. After mixing column 11, remove 50 μL and discard. • 5. Pipette 50 μL of buffer into column 12. Initiate the reaction by adding 50 μL of enzyme solution to each well of columns 1-11 as rapidly as possible. • 6. Read the plate in a spectrophotometer (SpectraMax) at 30° C., wherein each well is measured every 60 s for 30 min. For Factor Xa assays, each well is measured every 1 min for a total of 60 min. • 7. For Factor XIa assays, the compounds are assayed, in duplicate, at 3 different starting concentrations, 20, 2, and 0.2 μM; 1:10, 1:100, and 1:1000 dilution of 10 mM stock or at 2, 0.2, and 0.02 μM; 1:100, 1:1000, and 1:10,000 dilution of 10 mM stock. Data for each concentration are combined for graphing and data fitting. • 8. Data can be used both for estimation of IC50 and for estimation of Kon.

Factor XIa = Factor XIa (Homo sapiens (Human), UniProt P03951); experiment: Factor XIa enzyme inhibition assay (dose response, fluorogenic AMC substrate); settings: read-out: hFXIa IC50
Factor XIa, sequence (P03951 388-625): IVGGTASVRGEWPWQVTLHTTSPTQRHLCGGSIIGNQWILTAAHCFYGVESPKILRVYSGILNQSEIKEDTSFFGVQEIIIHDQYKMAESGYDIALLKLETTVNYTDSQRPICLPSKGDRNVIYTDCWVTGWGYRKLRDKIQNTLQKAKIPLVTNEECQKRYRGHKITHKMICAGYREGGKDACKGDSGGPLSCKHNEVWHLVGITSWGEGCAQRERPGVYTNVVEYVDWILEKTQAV
Factor XIa, sequence (P03951 19-387 partner): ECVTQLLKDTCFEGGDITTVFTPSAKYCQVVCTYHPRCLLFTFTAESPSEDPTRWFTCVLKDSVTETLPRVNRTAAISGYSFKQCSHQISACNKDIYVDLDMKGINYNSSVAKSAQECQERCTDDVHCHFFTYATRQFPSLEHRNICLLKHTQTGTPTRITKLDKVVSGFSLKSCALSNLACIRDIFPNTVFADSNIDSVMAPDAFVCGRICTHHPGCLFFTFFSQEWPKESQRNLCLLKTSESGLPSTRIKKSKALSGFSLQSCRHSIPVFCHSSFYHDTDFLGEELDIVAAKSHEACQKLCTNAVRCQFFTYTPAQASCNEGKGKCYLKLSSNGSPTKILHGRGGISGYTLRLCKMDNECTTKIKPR
How it was run: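 Fluorogenic progress curves (30 min, 1-min reads, 30° C) were recorded for 0.25 nM FXIa cleaving 50 μM Glp-Pro-Arg-AMC in Hepes pH 7.4 buffer with NaCl and Tween 20. Compounds were serially two-fold diluted, and IC50 was fitted with a Hill equation.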

Thrombin = Thrombin (Homo sapiens (Human), UniProt P00734); experiment: Dose response assay for protease inhibitors: thrombin; settings: selectivity, thrombin over Factor XIa
Description: as §1

Factor Xa = Factor Xa (Homo sapiens (Human), UniProt P00742); experiment: Dose response assay for protease inhibitors: Factor Xa; settings: selectivity, Factor Xa over Factor XIa
Factor Xa, sequence (P00742 235-488): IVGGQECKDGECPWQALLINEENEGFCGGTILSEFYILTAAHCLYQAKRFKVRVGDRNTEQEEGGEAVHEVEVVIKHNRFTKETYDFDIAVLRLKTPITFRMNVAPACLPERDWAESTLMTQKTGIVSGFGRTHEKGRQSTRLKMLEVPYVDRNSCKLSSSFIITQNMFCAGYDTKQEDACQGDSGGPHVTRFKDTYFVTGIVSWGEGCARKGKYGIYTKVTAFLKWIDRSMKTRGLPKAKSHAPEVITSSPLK
Factor Xa, sequence (P00742 41-179 partner): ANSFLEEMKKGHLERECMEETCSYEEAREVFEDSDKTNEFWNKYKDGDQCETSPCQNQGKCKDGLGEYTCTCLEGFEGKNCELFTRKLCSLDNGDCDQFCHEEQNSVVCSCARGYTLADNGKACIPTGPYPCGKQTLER
Description: as §1

Structure (SMILES) | IC50 (Factor XIa) [nM] | Ratio: Thrombin/FXIa (Thrombin) | Ratio: FXa/FXIa (Factor Xa) | Ratio: Trypsin/FXIa (Trypsin)
CC[C@@H](NC(=O)N1C(=O)[C@H](Cc2ccnc(N)c2)[C@H]1C(=O)N(C)c1nccn1C)c1ccc(C)cc1 [Compound 1-87, (2S,3R)-3-((2-aminopyridin-4-yl)methyl)-N2-(1-methyl-1H-imidazol-2-yl)-N1-((R)-1-(4-methylphenyl)propyl)-N2-methyl-4-oxoazetidine-1,2-dicarboxamide] | < 10 | H (“H” indicates 101-1000) | I (“I” indicates > 500) | G (“G” indicates 1-100)
CC[C@@H](NC(=O)N1C(=O)[C@H](Cc2ccnc(N)c2)[C@H]1C(=O)N(C)c1nccn1C)c1ccc(Cl)cc1 [Compound 1-94, (2S,3R)-3-((2-aminopyridin-4-yl)methyl)-N2-(1-methyl-1H-imidazol-2-yl)-N1-((R)-1-(4-chlorophenyl)propyl)-N2-methyl-4-oxoazetidine-1,2-dicarboxamide] | < 10 | H (“H” indicates 101-1000) | H (“H” indicates 101-1000) | G (“G” indicates 1-100)
CC[C@@H](NC(=O)N1C(=O)[C@H](Cc2ccnc(N)c2)[C@H]1C(=O)N(C)c1nccn1C)c1ccc(OC(F)(F)F)cc1 [Compound 1-97, (2S,3R)-3-((2-aminopyridin-4-yl)methyl)-N2-(1-methyl-1H-imidazol-2-yl)-N1-((R)-1-(4-trifluoromethoxyphenyl)propyl)-N2-methyl-4-oxoazetidine-1,2-dicarboxamide] | 10 to 100 | H (“H” indicates 101-1000) | H (“H” indicates 101-1000) | G (“G” indicates 1-100)
CC[C@@H](NC(=O)N1C(=O)[C@H](Cc2ccnc(N)c2)[C@H]1C(=O)N(C)c1nccn1C)c1ccc(F)cc1 [Compound 1-98, (2S,3R)-3-((2-aminopyridin-4-yl)methyl)-N2-(1-methyl-1H-imidazol-2-yl)-N1-((R)-1-(4-fluorophenyl)propyl)-N2-methyl-4-oxoazetidine-1,2-dicarboxamide] | < 10 | H (“H” indicates 101-1000) | I (“I” indicates > 500) | G (“G” indicates 1-100)
CC[C@@H](NC(=O)N1C(=O)[C@H](Cc2ccnc(N)c2)[C@H]1C(=O)N(C)c1nccn1C)c1cc(C)ccc1C [Compound 1-99, (2S,3R)-3-((2-aminopyridin-4-yl)methyl)-N2-(1-methyl-1H-imidazol-2-yl)-N1-((R)-1-(2,5-dimethylphenyl)propyl)-N2-methyl-4-oxoazetidine-1,2-dicarboxamide] | < 10 | H (“H” indicates 101-1000) | H (“H” indicates 101-1000) | G (“G” indicates 1-100)
CC[C@@H](NC(=O)N1C(=O)[C@H](Cc2ccnc(N)c2)[C@H]1C(=O)N(C)c1nccn1C)c1ccc(C)c(C)c1 [Compound 1-100, (2S,3R)-3-((2-aminopyridin-4-yl)methyl)-N2-(1-methyl-1H-imidazol-2-yl)-N1-((R)-1-(3,4-dimethylphenyl)propyl)-N2-methyl-4-oxoazetidine-1,2-dicarboxamide] | < 10 | H (“H” indicates 101-1000) | H (“H” indicates 101-1000) | G (“G” indicates 1-100)
CC[C@@H](NC(=O)N1C(=O)[C@H](Cc2ccnc(N)c2)[C@H]1C(=O)N(C)c1nccn1C)c1cc(C)ccc1Cl [Compound 1-101, (2S,3R)-3-((2-aminopyridin-4-yl)methyl)-N2-(1-methyl-1H-imidazol-2-yl)-N1-((R)-1-(2-chloro-5-methylphenyl)propyl)-N2-methyl-4-oxoazetidine-1,2-dicarboxamide] | < 10 | H (“H” indicates 101-1000) | H (“H” indicates 101-1000) | G (“G” indicates 1-100)
CC[C@@H](NC(=O)N1C(=O)[C@H](Cc2cc(C)nc(N)c2)[C@H]1C(=O)N(C)c1nccn1C)c1ccc(C)cc1 [Compound 1-107, (2S,3R)-3-((2-amino-6-methylpyridin-4-yl)methyl)-N2-(1-methyl-1H-imidazol-2-yl)-N1-((R)-1-(4-methylphenyl)propyl)-N2-methyl-4-oxoazetidine-1,2-dicarboxamide] | 10 to 100 | H (“H” indicates 101-1000) | I (“I” indicates > 500) | G (“G” indicates 1-100)

More lines, main results first:

IC50 (Factor XIa) [nM] | Ratio: Thrombin/FXIa (Thrombin) | Ratio: FXa/FXIa (Factor Xa) | Structure (SMILES) | Ratio: Trypsin/FXIa (Trypsin)
< 10 | H (“H” indicates 101-1000) | I (“I” indicates > 500) | CC[C@@H](NC(=O)N1C(=O)[C@H](Cc2ccnc(N)c2)[C@H]1C(=O)N(C)c1nccn1C)c1cc(C)ccc1F [Compound 1-102, (2S,3R)-3-((2-aminopyridin-4-yl)methyl)-N2-(1-methyl-1H-imidazol-2-yl)-N1-((R)-1-(2-fluoro-5-methylphenyl)propyl)-N2-methyl-4-oxoazetidine-1,2-dicarboxamide] | G (“G” indicates 1-100)
< 10 | H (“H” indicates 101-1000) | H (“H” indicates 101-1000) | CC[C@@H](NC(=O)N1C(=O)[C@H](Cc2ccnc(N)c2)[C@H]1C(=O)N(C)c1nccn1C)c1ccc(C)c(Cl)c1 [Compound 1-103, (2S,3R)-3-((2-aminopyridin-4-yl)methyl)-N2-(1-methyl-1H-imidazol-2-yl)-N1-((R)-1-(3-chloro-4-methylphenyl)propyl)-N2-methyl-4-oxoazetidine-1,2-dicarboxamide] | G (“G” indicates 1-100)
10 to 100 | H (“H” indicates 101-1000) | I (“I” indicates > 500) | CC[C@@H](NC(=O)N1C(=O)[C@H](Cc2cc(C)nc(N)c2)[C@H]1C(=O)N(C)c1nccn1C)c1ccc(Cl)cc1 [Compound 1-105, (2S,3R)-3-((2-amino-6-methylpyridin-4-yl)methyl)-N2-(1-methyl-1H-imidazol-2-yl)-N1-((R)-1-(4-chlorophenyl)propyl)-N2-methyl-4-oxoazetidine-1,2-dicarboxamide] | G (“G” indicates 1-100)
< 10 | H (“H” indicates 101-1000) | I (“I” indicates > 500) | CC[C@@H](NC(=O)N1C(=O)[C@H](Cc2cc(C)nc(N)c2)[C@H]1C(=O)N(C)c1nccn1C)c1ccc(F)cc1 [Compound 1-106, (2S,3R)-3-((2-amino-6-methylpyridin-4-yl)methyl)-N2-(1-methyl-1H-imidazol-2-yl)-N1-((R)-1-(4-fluorophenyl)propyl)-N2-methyl-4-oxoazetidine-1,2-dicarboxamide] | G (“G” indicates 1-100)
< 10 | H (“H” indicates 101-1000) | H (“H” indicates 101-1000) | CC[C@@H](NC(=O)N1C(=O)[C@H](Cc2cc(C)nc(N)c2)[C@H]1C(=O)N(C)c1nccn1C)c1ccc(C)c(C)c1 [Compound 1-109, (2S,3R)-3-((2-amino-6-methylpyridin-4-yl)methyl)-N2-(1-methyl-1H-imidazol-2-yl)-N1-((R)-1-(3,4-dimethylphenyl)propyl)-N2-methyl-4-oxoazetidine-1,2-dicarboxamide] | G (“G” indicates 1-100)
< 10 | H (“H” indicates 101-1000) | H (“H” indicates 101-1000) | CC[C@@H](NC(=O)N1C(=O)[C@H](Cc2cc(C)nc(N)c2)[C@H]1C(=O)N(C)c1nccn1C)c1cc(C)ccc1Cl [Compound 1-111, (2S,3R)-3-((2-amino-6-methylpyridin-4-yl)methyl)-N2-(1-methyl-1H-imidazol-2-yl)-N1-((R)-1-(2-chloro-5-methylphenyl)propyl)-N2-methyl-4-oxoazetidine-1,2-dicarboxamide] | G (“G” indicates 1-100)
